US20230024096A1, “BIFUNCTIONAL COMPOUNDS FOR THE TREATMENT OF CANCER” (Hoffmann-La Roche Inc., priority 2019, published 2023)

Biological target: T1, SMARCA2 (Homo sapiens, UniProt P51531)
T1 construct: endogenous in cells; host or cells: HT1080 (CRISPR HiBiT knock-in clone, generated in house)
Assay: SMARCA2 HiBiT degradation assay (cellular)
Format: cell-based
Conditions: table head names A549; for DC50: 6 h incubation, HiBiT-tagged SMARCA2, luminescence read-out, read-out: HiBit A549 SMARCA2 IP (nM) 6 h; for Emax: A549, 6 h incubation, Emax = amount of residual protein remaining in the cell following compound treatment

T1 sequence (P51531 whole entry): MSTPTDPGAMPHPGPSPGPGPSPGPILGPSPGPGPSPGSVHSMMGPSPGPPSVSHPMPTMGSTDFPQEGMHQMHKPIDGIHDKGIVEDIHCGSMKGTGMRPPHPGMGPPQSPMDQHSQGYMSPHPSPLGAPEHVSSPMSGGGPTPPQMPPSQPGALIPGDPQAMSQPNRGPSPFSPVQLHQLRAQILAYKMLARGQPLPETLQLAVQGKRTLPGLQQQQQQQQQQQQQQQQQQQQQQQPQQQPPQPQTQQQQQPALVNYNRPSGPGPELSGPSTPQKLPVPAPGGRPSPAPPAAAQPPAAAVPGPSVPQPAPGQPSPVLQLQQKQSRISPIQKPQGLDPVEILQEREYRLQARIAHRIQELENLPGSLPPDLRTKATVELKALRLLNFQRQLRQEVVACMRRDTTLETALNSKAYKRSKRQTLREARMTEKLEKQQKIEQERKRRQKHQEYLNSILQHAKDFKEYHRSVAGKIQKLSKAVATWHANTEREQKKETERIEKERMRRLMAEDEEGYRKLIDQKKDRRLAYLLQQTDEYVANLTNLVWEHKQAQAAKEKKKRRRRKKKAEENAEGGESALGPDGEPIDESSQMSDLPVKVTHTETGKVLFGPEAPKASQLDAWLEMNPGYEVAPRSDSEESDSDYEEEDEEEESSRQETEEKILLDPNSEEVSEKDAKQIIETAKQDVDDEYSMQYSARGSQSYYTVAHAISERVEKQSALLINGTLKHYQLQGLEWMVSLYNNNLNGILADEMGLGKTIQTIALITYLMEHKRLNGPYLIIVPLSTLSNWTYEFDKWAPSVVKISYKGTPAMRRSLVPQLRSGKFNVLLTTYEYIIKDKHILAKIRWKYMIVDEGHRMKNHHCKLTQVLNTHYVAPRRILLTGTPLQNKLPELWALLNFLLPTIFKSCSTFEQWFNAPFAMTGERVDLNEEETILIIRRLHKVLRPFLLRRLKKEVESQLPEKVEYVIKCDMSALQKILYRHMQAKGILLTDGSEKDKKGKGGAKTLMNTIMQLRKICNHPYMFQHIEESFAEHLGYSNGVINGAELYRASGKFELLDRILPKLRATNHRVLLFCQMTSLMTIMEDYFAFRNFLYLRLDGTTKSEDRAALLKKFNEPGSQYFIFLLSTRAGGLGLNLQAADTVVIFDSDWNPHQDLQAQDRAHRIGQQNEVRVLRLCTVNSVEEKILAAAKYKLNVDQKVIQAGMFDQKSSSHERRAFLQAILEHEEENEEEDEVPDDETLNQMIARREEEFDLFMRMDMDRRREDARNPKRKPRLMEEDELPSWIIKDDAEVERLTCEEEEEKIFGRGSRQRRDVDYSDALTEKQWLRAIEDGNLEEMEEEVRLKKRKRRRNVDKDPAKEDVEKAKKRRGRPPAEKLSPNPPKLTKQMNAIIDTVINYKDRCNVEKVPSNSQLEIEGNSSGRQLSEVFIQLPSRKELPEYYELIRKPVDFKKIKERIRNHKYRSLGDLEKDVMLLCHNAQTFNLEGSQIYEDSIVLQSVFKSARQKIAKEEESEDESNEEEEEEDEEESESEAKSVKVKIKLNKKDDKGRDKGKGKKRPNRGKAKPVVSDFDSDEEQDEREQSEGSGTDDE

Row | Structure (SMILES) | DC50 [nM] | Emax [%]
1 | Nc1nnc(-c2ccccc2O)cc1N1CCC(C(=O)N2CCC3(CC2)CN(C(=O)CN2CCN(c4ccc(NC5CCC(=O)NC5=O)cc4)CC2)CCO3)(c2ccccc2)CC1 (stereo not drawn) [Example 173, 3-((4-(4-(2-(9-(1-(3-amino-6-(2-hydroxyphenyl)pyridazin-4-yl)-4-phenylpiperidine-4-carbonyl)-1-oxa-4,9-diazaspiro[5.5]undecan-4-yl)-2-oxoethyl)piperazin-1-yl)phenyl)amino)piperidine-2,6-dione] | 110 | 72
2 | Nc1nnc(-c2ccccc2O)cc1N1CCC(C(=O)N2CCC(C(=O)N3CCN(Cc4ccc5c(c4)C(=O)N(C4CCC(=O)NC4=O)C5=O)CC3)CC2)(c2ccccc2)CC1 (stereo not drawn) [Example 174, 5-((4-(1-(1-(3-amino-6-(2-hydroxyphenyl)pyridazin-4-yl)-4-phenylpiperidine-4-carbonyl)piperidine-4-carbonyl)piperazin-1-yl)methyl)-2-(2,6-dioxopiperidin-3-yl)isoindoline-1,3-dione] | 123 | 54
3 | Nc1nnc(-c2ccccc2O)cc1N1CCC(C(=O)N2CCC(C(=O)N3CCN(c4ccc5c(c4)C(=O)N(C4CCC(=O)NC4=O)C5=O)CC3)CC2)(c2ccccc2)CC1 (stereo not drawn) [Example 178, 5-(4-(1-(1-(3-amino-6-(2-hydroxyphenyl)pyridazin-4-yl)-4-phenylpiperidine-4-carbonyl)piperidine-4-carbonyl)piperazin-1-yl)-2-(2,6-dioxopiperidin-3-yl)isoindoline-1,3-dione] | 187 | 46
4 | Nc1nnc(-c2ccccc2O)cc1N1CCC(C(=O)N2CCC3(CC2)CN(C(=O)CCCN2CCC(c4ccc(OC5CCC(=O)NC5=O)cc4)CC2)CCO3)(c2ccccc2)CC1 (stereo not drawn) [Example 181, 3-(4-(1-(4-(9-(1-(3-amino-6-(2-hydroxyphenyl)pyridazin-4-yl)-4-phenylpiperidine-4-carbonyl)-1-oxa-4,9-diazaspiro[5.5]undecan-4-yl)-4-oxobutyl)piperidin-4-yl)phenoxy)piperidine-2,6-dione] | 99 | 56
5 | Nc1nnc(-c2cc(F)cc(F)c2O)cc1N1CCC(CNC(=O)CCCN2CCC(c3ccc(OC4CCC(=O)NC4=O)cc3)CC2)(c2ccccc2)CC1 (stereo not drawn) [Example 182, N-[[1-[3-amino-6-(3,5-difluoro-2-hydroxy-phenyl)pyridazin-4-yl]-4-phenyl-4-piperidyl]methyl]-4-[4-[4-[(2,6-dioxo-3-piperidyl)oxy]phenyl]-1-piperidyl]butanamide] | 103 | 47

Results, then the molecule that gave them:

Row | DC50 [nM] | Emax [%] | Structure (SMILES)
6 | 42 | 47 | Nc1nnc(-c2ccccc2O)cc1N1CCC(C(=O)N2CCC(C(=O)N3CCC(c4ccc(C5CCC(=O)NC5=O)cc4)CC3)CC2)(c2ccccc2)CC1 (stereo not drawn) [Example 175, 3-(4-(1-(1-(1-(3-amino-6-(2-hydroxyphenyl)pyridazin-4-yl)-4-phenylpiperidine-4-carbonyl)piperidine-4-carbonyl)piperidin-4-yl)phenyl)piperidine-2,6-dione]
7 | – | 31 | Nc1nnc(-c2ccccc2O)cc1N1CCC(C(=O)N2CCC(C(=O)N3CCN(c4ccc(C5CCC(=O)NC5=O)cc4)CC3)CC2)(c2ccccc2)CC1 (stereo not drawn) [Example 176, 3-(4-(4-(1-(1-(3-amino-6-(2-hydroxyphenyl)pyridazin-4-yl)-4-phenylpiperidine-4-carbonyl)piperidine-4-carbonyl)piperazin-1-yl)phenyl)piperidine-2,6-dione]
8 | 174 | 69 | Nc1nnc(-c2ccccc2O)cc1N1CCC(C(=O)N2CCC(C(=O)N3CCC(c4ccc(NC5CCC(=O)NC5=O)cn4)CC3)CC2)(c2ccccc2)CC1 (stereo not drawn) [Example 177, 3-((6-(1-(1-(1-(3-amino-6-(2-hydroxyphenyl)pyridazin-4-yl)-4-phenylpiperidine-4-carbonyl)piperidine-4-carbonyl)piperidin-4-yl)pyridin-3-yl)amino)piperidine-2,6-dione]
